According to patent US9580428B2, “Compositions and methods for inhibiting viral polymerase” (priority 2012, dated 2017):
“And” between values parts separate entries of the source, which are not always exact repeats. Identical values can stand only once. Counter-ions that a name gives are not always drawn. Like-named read-outs stand apart in the source and are kept apart here. Marks after values point to notes of the source that are not given here.

Assays:
[1] = tested on: Punta Toro A2 (Vero 76 cells); experiment: microbe, parasite or virus in culture
in vitro [2] = conditions: African green monkey
[3] = tested on: Yellow fever virus (Jimenez strain); format: in vivo, Syrian golden hamsters; conditions: 100 mg/kg
[4] = tested on: Respiratory Syncytial A2 (MA-104 cells); experiment: microbe, parasite or virus in culture; conditions: human respiratory syncytial virus, MA104
[5] = tested on: Adenovirus type 165089/Chicago (A-549 cells); conditions: human
[6] = tested on: Rhinovirus 2 HGP (HeLa Ohio-1 cells); experiment: microbe, parasite or virus in culture; conditions: Enterovirus, HeLa Ohio1
[7] = tested on: Yellow Fever 17D (Vero 76 cells); experiment: microbe, parasite or virus in culture
[8] = tested on: Yellow Fever 17D (Vero 76 cells); experiment: microbe, parasite or virus in culture; remark: listed apart in the source
[9] = tested on: SARS-CoV Urbani (Vero 76 cells); conditions: African green monkey
[10] = tested on: H3N2 virus (A/Victoria/3/75); set-up: species or system BALB/c mice; conditions: mouse, in vivo
[11] = tested on: Respiratory Syncytial A2 (MA-104 cells); experiment: microbe, parasite or virus in culture; conditions: human respiratory syncytial virus, MA104; remark: listed apart in the source
[12] = tested on: Rhinovirus 2 HGP (HeLa Ohio-1 cells); experiment: microbe, parasite or virus in culture; conditions: Enterovirus, HeLa Ohio1; remark: listed apart in the source
[13] = rat, in vivo, po; for AUC(0-inf) / Cmax / Tmax: male, Sprague-Dawley
in vitro [14] = conditions: African green monkey; remark: listed apart in the source
[15] = tested on: Rhinovirus 2 HGP (HeLa Ohio-1 cells); conditions: human
[16] = tested on: Adenovirus type 165089/Chicago (A-549 cells); conditions: human; remark: listed apart in the source
[17] = tested on: Influenza A H1N1 CA/04/2009 (Pandemic HIN1)
[18] = tested on: Punta Toro A2 (Vero 76 cells); experiment: microbe, parasite or virus in culture; remark: listed apart in the source
[19] = tested on: H3N2 virus (A/Victoria/3/75); set-up: species or system BALB/c mice; conditions: mouse, in vivo; remark: listed apart in the source
A/Vic/3/75 (H3N2) = experiment: microbe, parasite or virus in culture; format: cell-based; conditions: Influenza A virus
[20] = tested on: Influenza A H1N1 CA/04/2009 (Pandemic HIN1); remark: listed apart in the source
West Nile (Vero Cells) = conditions: African green monkey

Cl.Cl.Nc1ncnc2c([C@@H]3N[C@H](CO)[C@@H](O)[C@H]3O)c[nH]c12 [compound 12i, (2S,3S,4R,5R)-2-(4-amino-5H-pyrrolo[3,2-d]pyrimidin-7-yl)-5-(hydroxymethyl)pyrrolidine-3,4-diol dihydrochloride]
EC50 [1]: > 250 µg/mL | IC50 (in vitro [2]): > 100 µg/mL | Survival rate ([3]; 21 days): 100% | weight ([3]; hamster, in vivo, ip): weight gain over placebo and ribavirin | Survival rate ([3]; hamster, in vivo, ip, dihydrochloride): 100% and 80% | EC50 [4]: > 100 µg/mL | IC50 (50% cytotoxic dose) [5]: >0.1 µg/mL | EC50 [6]: 56 µg/mL | EC50 [7]: 8.3 µg/mL | EC50 [8]: 8.3 µg/mL | IC50 (50% cytotoxic dose) [9]: >0.1 µg/mL | Mean day to death (Mean ± SEM) [10]: >16 days | EC50 [11]: > 100 µg/mL | EC50 [12]: 57 µg/mL | AUC(0-inf) ([13]; 10 mg/kg): 219 ng·h | Cmax ([13]; 10 mg/kg): 123 ng/mL | Tmax ([13]; 10 mg/kg): 30 min | IC50 (in vitro [14]): > 100 µg/mL | IC50 (50% cytotoxic dose) [15]: >0.1 µg/mL | EC50 (Influenza B Florida): 1.8 µg/mL | IC50 (50% cytotoxic dose) [16]: >0.1 µg/mL | IC50 (50% cytotoxic dose) [17]: 0.21 µg/mL | EC50 [18]: 310 µg/mL | Survival/Total [19]: 10/10* | Mean day to death (Mean ± SEM) ([19]; po): >16 days | Mean weight change (grams ± SEM) Day 9 ([19]; po): 0.01 + 0.27** grams | Survival/Total ([19]; po): 10/10* | EC50 (A/Vic/3/75 (H3N2)): 4 µg/mL | IC50 (50% cytotoxic dose) [20]: 0.21 µg/mL | IC50 (50% cytotoxic dose) (West Nile (Vero Cells)): >0.1 µg/mL

CC(C)[C@H](N)C(=O)OC[C@H]1N[C@@H](c2c[nH]c3c(N)ncnc23)[C@H](O)[C@@H]1O [compound 30f, (S)-((2R,3R,4S,5S)-5-(4-amino-5H-pyrrolo[3,2-d]pyrimidin-7-yl)-3,4-dihydroxypyrrolidin-2-yl)methyl 2-amino-3-methylbutanoate Hydrochloride]
AUC(0-inf) ([13]; 10 mg/kg): 1076 ng·h | Cmax ([13]; 10 mg/kg): 527 ng/mL | Tmax ([13]; 10 mg/kg): 30 min | hydrolysis by plasma esterases to compound 12i [13]: rapidly hydrolyze | bioavailability relative to compound 12i ([13]; 10 mg/kg): approximately four-fold
